Test results published in the CheMixHub viscosity set.
± gives the uncertainty stated by the source.

Experiment: xn = mol fraction of the nth substance listed

CCCC(=O)[O-].[NH3+]CCO + O
viscosity [mPa·s], 101 kPa
Details | x1 = 0.0063 | x1 = 0.0132 | x2 = 0.8927 | x2 = 0.9254 | x2 = 0.9508 | x2 = 0.9707 | x2 = 0.9793
293.15 K | 1.38 ± 0.074 | 1.662 ± 0.088 | 9.498 ± 0.51 | 5.73 ± 0.35 | 3.702 ± 0.21 | 2.46 ± 0.14 | 1.98 ± 0.11
298.15 K | 1.248 ± 0.067 | 1.476 ± 0.078 | 7.89 ± 0.44 | 4.836 ± 0.26 | 3.21 ± 0.17 | 2.145 ± 0.12 | 1.776 ± 0.092
303.15 K | 1.104 ± 0.062 | 1.32 ± 0.07 | 6.6 ± 0.38 | 4.182 ± 0.2 | 2.814 ± 0.14 | 1.878 ± 0.098 | 1.59 ± 0.083

CCCOCC(C)OCC(C)O (configuration not stated) + CCCCCO
298.15 K, 101 kPa
Details | viscosity [mPa·s]
x1 = 0.0566 | 3.194 ± 0.021
x1 = 0.1564 | 3.499 ± 0.022
x1 = 0.2104 | 3.49 ± 0.022
x1 = 0.2577 | 3.486 ± 0.022
x1 = 0.3103 | 3.484 ± 0.022
x1 = 0.3524 | 3.483 ± 0.022
x1 = 0.4027 | 3.481 ± 0.022
x1 = 0.4592 | 3.494 ± 0.022
x1 = 0.5107 | 3.516 ± 0.022
x1 = 0.5585 | 3.545 ± 0.022
x1 = 0.6219 | 3.59 ± 0.023
x1 = 0.6862 | 3.64 ± 0.023
x1 = 0.7322 | 3.684 ± 0.023
x1 = 0.7995 | 3.733 ± 0.023
x1 = 0.9032 | 3.807 ± 0.024
x1 = 0.9629 | 3.849 ± 0.024
x2 = 0.0139 | 3.867 ± 0.024

CC(=O)OCCC(C)C + Clc1ccccc1
viscosity [mPa·s], 101 kPa
Details | 298.15 K | 303.15 K | 308.15 K | 313.15 K
x1 = 0.0458 | 0.75 ± 0.005 | – | 0.678 ± 0.005 | –
x1 = 0.0705 | – | 0.718 ± 0.011 | – | 0.634 ± 0.011
x1 = 0.1467 | – | 0.729 ± 0.011 | – | 0.643 ± 0.011
x1 = 0.1506 | 0.741 ± 0.005 | – | 0.676 ± 0.005 | –
x1 = 0.2271 | – | 0.74 ± 0.011 | – | 0.654 ± 0.011
x1 = 0.251 | 0.735 ± 0.005 | – | 0.677 ± 0.005 | –
x1 = 0.3141 | – | 0.751 ± 0.011 | – | 0.662 ± 0.011
x1 = 0.3515 | 0.732 ± 0.005 | – | 0.681 ± 0.005 | –
x1 = 0.4073 | – | 0.758 ± 0.011 | – | 0.669 ± 0.011
x1 = 0.4513 | 0.731 ± 0.005 | – | 0.684 ± 0.005 | –
x1 = 0.4998 | 0.732 ± 0.005 | – | 0.687 ± 0.005 | –
x1 = 0.5006 | – | 0.767 ± 0.011 | – | 0.675 ± 0.011
x1 = 0.5511 | 0.734 ± 0.005 | – | 0.691 ± 0.005 | –
x1 = 0.6085 | – | 0.768 ± 0.011 | – | 0.674 ± 0.011
x1 = 0.6517 | 0.739 ± 0.005 | – | 0.699 ± 0.005 | –
x1 = 0.728 | – | 0.766 ± 0.011 | – | 0.671 ± 0.011
x1 = 0.7519 | 0.747 ± 0.005 | – | 0.71 ± 0.005 | –
x1 = 0.8507 | 0.758 ± 0.005 | – | 0.723 ± 0.005 | –
x1 = 0.8573 | – | 0.758 ± 0.011 | – | 0.661 ± 0.011
x1 = 0.9448 | 0.772 ± 0.005 | – | 0.737 ± 0.005 | –

CC(=O)O.OCCNCCO + CC(=O)O.NCCO
viscosity [mPa·s], 101.3 kPa
Details | x2 = 0.132 | x2 = 0.2549 | x2 = 0.3688 | x2 = 0.4761 | x2 = 0.5761 | x2 = 0.671 | x2 = 0.7597 | x2 = 0.8444 | x2 = 0.9235
293.15 K | 2246 ± 150 | 2377 ± 160 | 2507 ± 170 | 2638 ± 170 | 2769 ± 180 | 2900 ± 190 | 3031 ± 200 | 3161 ± 210 | 3292 ± 220
298.15 K | 1454 ± 89 | 1544 ± 95 | 1635 ± 100 | 1725 ± 110 | 1815 ± 110 | 1906 ± 120 | 1996 ± 130 | 2086 ± 130 | 2177 ± 140
303.15 K | 965.1 ± 56 | 1025 ± 60 | 1084 ± 64 | 1144 ± 68 | 1204 ± 72 | 1263 ± 76 | 1323 ± 80 | 1383 ± 84 | 1442 ± 88
308.15 K | 657.7 ± 36 | 698.1 ± 39 | 738.5 ± 41 | 778.9 ± 44 | 819.3 ± 46 | 859.7 ± 49 | 900 ± 52 | 940.4 ± 54 | 980.8 ± 57
313.15 K | 459.4 ± 24 | 487.4 ± 26 | 515.3 ± 27 | 543.3 ± 29 | 571.3 ± 31 | 599.2 ± 33 | 627.2 ± 34 | 655.1 ± 36 | 683.1 ± 38
318.15 K | 328.1 ± 17 | 348 ± 18 | 367.8 ± 19 | 387.6 ± 20 | 407.4 ± 21 | 427.3 ± 22 | 447.1 ± 23 | 466.9 ± 25 | 486.7 ± 26
323.15 K | 239.3 ± 12 | 253.7 ± 12 | 268 ± 13 | 282.3 ± 14 | 296.7 ± 15 | 311 ± 16 | 325.3 ± 16 | 339.7 ± 17 | 354 ± 18

CC(=O)OCCC(C)C + Cc1ccccc1C
viscosity [mPa·s], 101 kPa
Details | 298.15 K | 308.15 K
x1 = 0.045 | 0.754 ± 0.005 | 0.657 ± 0.005
x1 = 0.1503 | 0.745 ± 0.005 | 0.659 ± 0.005
x1 = 0.2526 | 0.738 ± 0.005 | 0.66 ± 0.005
x1 = 0.3475 | 0.735 ± 0.005 | 0.664 ± 0.005
x1 = 0.4468 | 0.735 ± 0.005 | 0.67 ± 0.005
x1 = 0.4819 | 0.735 ± 0.005 | 0.673 ± 0.005
x1 = 0.5459 | 0.737 ± 0.005 | 0.679 ± 0.005
x1 = 0.649 | 0.741 ± 0.005 | 0.69 ± 0.005
x1 = 0.7465 | 0.749 ± 0.005 | 0.702 ± 0.005
x1 = 0.8524 | 0.76 ± 0.005 | 0.719 ± 0.005
x1 = 0.9401 | 0.772 ± 0.005 | 0.735 ± 0.005

O=P(O)(O)O + CCCCCCCCO
viscosity [mPa·s], 101 kPa
Details | x1 = 0.0266 | x1 = 0.0485 | x1 = 0.0865 | x1 = 0.1055 | x1 = 0.149 | x1 = 0.1867 | x1 = 0.2054 | x1 = 0.2487 | x1 = 0.2753 | x1 = 0.3073
293.15 K | 10.8 ± 0.14 | 11.16 ± 0.16 | 14.06 ± 0.2 | 15.07 ± 0.23 | 19.85 ± 0.36 | 30.76 ± 0.59 | 35.99 ± 0.72 | 40.67 ± 0.93 | 45.65 ± 1.1 | 48.76 ± 1.3
303.15 K | 6.465 ± 0.12 | 7.085 ± 0.13 | 8.327 ± 0.15 | 9.414 ± 0.17 | 11.8 ± 0.23 | 15.79 ± 0.35 | 17.99 ± 0.42 | 21.76 ± 0.54 | 25.77 ± 0.66 | 28 ± 0.77
313.15 K | 4.823 ± 0.11 | 5.02 ± 0.11 | 5.655 ± 0.12 | 6.55 ± 0.13 | 7.186 ± 0.16 | 8.765 ± 0.2 | 9.786 ± 0.23 | 11.34 ± 0.3 | 14.18 ± 0.39 | 15.19 ± 0.44
323.15 K | 3.614 ± 0.1 | 3.765 ± 0.11 | 3.995 ± 0.11 | 4.223 ± 0.12 | 4.716 ± 0.12 | 5.176 ± 0.14 | 5.564 ± 0.15 | 6.076 ± 0.18 | 6.308 ± 0.2 | 6.896 ± 0.23

CCCOCC(C)OCC(C)O (configuration not stated) + CCCO
298.15 K, 101 kPa
Details | viscosity [mPa·s]
x1 = 0.0061 | 1.977 ± 0.015
x1 = 0.0137 | 1.998 ± 0.015
x1 = 0.028 | 2.036 ± 0.015
x1 = 0.0763 | 2.163 ± 0.016
x1 = 0.1234 | 2.28 ± 0.017
x1 = 0.1783 | 2.416 ± 0.017
x1 = 0.2361 | 2.556 ± 0.018
x1 = 0.3132 | 2.74 ± 0.019
x1 = 0.3684 | 2.862 ± 0.019
x1 = 0.4279 | 2.985 ± 0.02
x1 = 0.4905 | 3.102 ± 0.02
x1 = 0.5267 | 3.164 ± 0.021
x1 = 0.5714 | 3.239 ± 0.021
x1 = 0.6634 | 3.388 ± 0.022
x1 = 0.7271 | 3.495 ± 0.022
x1 = 0.8017 | 3.617 ± 0.023
x1 = 0.8701 | 3.728 ± 0.023
x1 = 0.9055 | 3.78 ± 0.024
x1 = 0.9497 | 3.837 ± 0.024

C[NH+](C)C.[Cl-] + CC(=O)CCC(=O)O
101 kPa, x2 = 0.75
Details | viscosity [mPa·s]
293.15 K | 74.02 ± 3.1
303.15 K | 42.25 ± 1.8
313.15 K | 25.57 ± 1.1
323.15 K | 17.71 ± 0.73

CC(=O)OCCC(C)C + Cc1ccccc1
viscosity [mPa·s], 101 kPa
Details | 298.15 K | 308.15 K
x1 = 0.0474 | 0.555 ± 0.005 | 0.505 ± 0.004
x1 = 0.1513 | 0.567 ± 0.005 | 0.522 ± 0.004
x1 = 0.2512 | 0.581 ± 0.005 | 0.54 ± 0.005
x1 = 0.3494 | 0.598 ± 0.005 | 0.56 ± 0.005
x1 = 0.4458 | 0.616 ± 0.005 | 0.581 ± 0.005
x1 = 0.4978 | 0.627 ± 0.005 | 0.593 ± 0.005
x1 = 0.5497 | 0.639 ± 0.005 | 0.606 ± 0.005
x1 = 0.649 | 0.664 ± 0.005 | 0.632 ± 0.005
x1 = 0.7499 | 0.692 ± 0.005 | 0.661 ± 0.005
x1 = 0.855 | 0.726 ± 0.005 | 0.695 ± 0.005
x1 = 0.9448 | 0.759 ± 0.005 | 0.726 ± 0.005

CC(=O)OCCC(C)C + ClC(Cl)Cl
303.15 K, 101.3 kPa
Details | viscosity [mPa·s]
x1 = 0.1037 | 0.5821 ± 0.058
x1 = 0.2076 | 0.6427 ± 0.064
x1 = 0.301 | 0.6846 ± 0.069
x1 = 0.3983 | 0.7145 ± 0.072
x1 = 0.5044 | 0.7309 ± 0.073
x1 = 0.6009 | 0.7377 ± 0.074
x1 = 0.6966 | 0.7338 ± 0.073
x1 = 0.8058 | 0.7252 ± 0.073
x1 = 0.8911 | 0.7143 ± 0.072
